Here are results for 59 compounds from the METLIN SMRT retention time set (Domingo-Almenara et al. 2019).

Molecules are shown by their SMILES.

The series in a line: gradient 5% acetonitrile 3 min, to 50% in 2 min, to 85% in 15 min, held 3 min, 100 µL/min. As to conditions: column: Zorbax Extend-C18 2.1 x 50 mm; eluents: water / acetonitrile, 0.1% formic acid. In a few lines:
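Over 3 months, pure standards in mixtures of ~100 molecules were run by HPLC coupled to a quadrupole time-of-flight mass spectrometer in positive and negative ionization mode. The column was a Zorbax Extend-C18 (2.1 × 50 mm, 1.8 μm) at 100 μL/min, eluted with water and acetonitrile each holding 0.1% formic acid, with 40 μL dead and 900 μL dwell volumes. Retention time was determined from adduct peaks chosen by software and checked manually.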
With `Cc1ccc(NC(=O)C2CCN(S(=O)(=O)c3cn(C)cn3)CC2)cc1C`, the RP-LC retention time turned out to be 734 s.

On to `CCOC(=O)c1[nH]c(C)c(C(=O)N2CCC(CC(=O)N(C)Cc3ccco3)CC2)c1C`, for which the RP-LC retention time is 729 s.

In the case of `Cc1ccc(-c2nc(CN(c3ccccc3)S(=O)(=O)c3cccs3)c(C)o2)cc1`, the RP-LC retention time was determined as 1200 s.

On to `CCOc1ccc(C(C)NC(=O)C2c3ccccc3CCN2C(=O)C2CC2)cc1` (centres undefined), for which the RP-LC retention time came out at 907 s.

Turning to `CN1CCCc2cc(C(CNC(=O)C(=O)NCCC3=CCCCC3)N3CCCC3)ccc21` (centres undefined), the RP-LC retention time turned out to be 803 s.

For the compound `COc1ccc(Cn2ccc3nc(C)c(C(=O)NCCc4c[nH]c5ccccc45)cc3c2=O)cc1`, the RP-LC retention time amounted to 807 s.

`CC1CCN(C(=O)CSc2nnc(-c3ccccc3F)o2)CC1` registered an RP-LC retention time of 901 s.

In the case of `CCCCN(CC)CCCNC(=O)C1CCCN(c2ncnc3c2nc2n3CCCCC2)C1` (centres undefined), the RP-LC retention time is 611 s.

With `CC(C)CNC(=O)N1CC(c2nc(-c3ccccc3)no2)C2(CCOCC2)C1` (centres undefined), the RP-LC retention time came to 858 s.

In turn, `CCOc1ccc(OCC)c(S(=O)(=O)Nc2ccc(-c3cn4ccc(C)nc4n3)cc2)c1` had an RP-LC retention time of 697 s.

Regarding `Cn1ncc2c3ccccc3n(CCCC(=O)NCCN3CCCCCC3)c2c1=O`, the RP-LC retention time is 645 s.

Consider `Cc1scc2nc(C3CCC3)nc(N3CCC(C(=O)NCc4ccc(N(C)C)cc4)CC3)c12`, for which the RP-LC retention time was determined as 604 s.

Compound `c1ccc(-c2nc(C3CC3)no2)c(OC2CNC2)c1` yielded an RP-LC retention time of 614 s.

Take `CN(Cc1cc(Br)cc(Br)c1N)C1CCCCC1`: the RP-LC retention time is 832 s.

For the compound `COC(=O)c1ccc2c(=O)n(CCc3ccccc3)c(N3CCC(C)CC3)nc2c1`, the RP-LC retention time was found to be 1380 s.

`COc1ccc(-c2nc3cnccn3c2Nc2ccc(C(=O)NCc3ccco3)cc2)cc1OC`: the RP-LC retention time amounted to 682 s.

For the compound `O=C(CN1CCC(c2nc(-c3ccc(F)cc3)no2)CC1)N1CCN(c2ccccc2)CC1`, the RP-LC retention time turned out to be 618 s.

`COc1ccccc1NC(=O)N1CCN(c2cc(C)nc(N3CCOCC3)n2)CC1` yielded an RP-LC retention time of 618 s.

`O=C(Nc1nc(-c2ccccc2)ns1)c1ccccc1Cl` had an RP-LC retention time of 989 s.

Regarding `COc1ccc(C(=O)CC2(O)C(=O)Nc3ccc(C)cc32)cc1OC` (centres undefined), the RP-LC retention time was 670 s.

In turn, `CCC(C)NC(=O)c1nnc(-c2ccc(S(=O)(=O)N3CCCCC3)cc2)o1` (centres undefined) came in with an RP-LC retention time of 961 s.

Consider `O=C(c1ccncn1)N1CC(n2cnnc2C2CCCO2)C1` (centres undefined), for which the RP-LC retention time came out at 580 s.

For `CCSc1nc(O)cc(=O)[nH]1`, the RP-LC retention time was 628 s.

On to `CCc1ccc(NC(=O)N2CCc3c(c(-c4nc(C5CC5)no4)nn3C)C2)cc1`, for which the RP-LC retention time turned out to be 934 s.

Regarding `CCN(CC)C(=O)c1ccc(-c2nc3cc(NS(=O)(=O)c4ccc(F)cc4F)ccc3n2C)cc1`, the RP-LC retention time is 710 s.

As to `CC(=O)Nc1nc2ccc(CC(=O)NCCc3c[nH]c4ccc(Cl)cc34)cc2s1`, the RP-LC retention time worked out at 747 s.

Compound `CN(Cc1ccoc1)C(=O)Nc1ccccc1` yielded an RP-LC retention time of 785 s.

`O=C1Nc2ccc(I)cc2C1=Cc1cc(Br)c(O)c(Br)c1` came in with an RP-LC retention time of 1090 s.

Turning to `O=C1CC(c2noc(-c3cccc(OC(F)(F)F)c3)n2)CN1c1ccc(F)c(Cl)c1` (centres undefined), the RP-LC retention time is 1210 s.

Compound `Cc1oc(-c2ccc(Cl)cc2)nc1CN1CCCC(C(=O)N2CCN(C(=O)c3ccco3)CC2)C1` (centres undefined) had an RP-LC retention time of 679 s.

In turn, `CC(C)(C)C(=O)Oc1ccc(S(=O)(=O)Nc2ccccc2C(=O)NCC(=O)O)cc1` returned an RP-LC retention time of 961 s.

`CCCNC(=O)N1CCCCCC1CN1CCCC1` (centres undefined) displayed an RP-LC retention time of 580 s.

The compound `COc1ccccc1N1CCN(Cc2nc(-c3ccc(N4CCCC(C)C4)nc3)no2)CC1` (centres undefined) gave an RP-LC retention time of 848 s.

`C=CCN(CC=C)C(=O)Cn1c(C2CC(=O)N(c3ccc(OC)cc3)C2)nc2ccccc21` (centres undefined) yielded an RP-LC retention time of 682 s.

On to `COc1ccc(-c2noc(CN3CCN(c4ccccc4)CC3)n2)cc1OC`, for which the RP-LC retention time came out at 846 s.

Consider `Cc1ccc(S(=O)(=O)N2CCCC(Cn3cnc4cccnc43)C2)cc1F` (centres undefined), for which the RP-LC retention time amounted to 802 s.

With `CC(=O)c1cn(CC(=O)NC(C)c2ccc3c(c2)OCCCO3)c2ccccc12` (centres undefined), the RP-LC retention time came to 794 s.

`Cc1nc2cc(NC(=O)c3csc(Nc4ncccn4)n3)ccc2s1` showed an RP-LC retention time of 706 s.

With `CCOc1ccc(-c2noc(Cn3c(=O)n(CCCOC)c(=O)c4ccccc43)n2)cc1OC`, the RP-LC retention time was determined as 956 s.

The compound `CCn1cc(CCNC(=O)Nc2ccc(C)cc2C)c2cccnc21` yielded an RP-LC retention time of 705 s.

`CCN(CC)C(=O)c1ccc(-c2nnc3ccc(NC(=O)C4CC4)cn23)cc1` returned an RP-LC retention time of 699 s.

In turn, `Cc1cc2n(n1)CCC(=O)N2CCCC(=O)N(C)Cc1ccccc1` displayed an RP-LC retention time of 681 s.

`O=C(O)c1ccc(Nc2ncc3c(n2)-c2ccc(Cl)cc2C(c2c(F)cccc2F)=NC3)cc1` had an RP-LC retention time of 947 s.

As to `CC(C)c1cc(N2CCN(c3ccccn3)CC2)n2c(nc3ccccc32)c1C#N`, the RP-LC retention time was 695 s.

With `Cc1ccc([N+](=O)[O-])cc1NC(=O)Nc1cccc(F)c1`, the RP-LC retention time was determined as 1010 s.

The compound `O=C(NCc1csc(-c2cccs2)n1)C1CCN(S(=O)(=O)c2ccccc2)CC1` yielded an RP-LC retention time of 870 s.

In turn, `Cc1cccc(CNC(=O)c2cn3ccc(C)cc3n2)c1` displayed an RP-LC retention time of 675 s.

In turn, `O=C(CNC(=O)C(c1ccccc1)c1ccccc1)NCC(=O)N1CCCc2ccccc21` showed an RP-LC retention time of 875 s.

`CC1CCCCN1CCNC(=O)c1cc(S(=O)(=O)N2CCCC2)ccc1Cl` (centres undefined) registered an RP-LC retention time of 617 s.

On to `COc1cccc(Cn2ccn3nc(-c4ccc(OC)c(OC)c4)cc3c2=O)c1`, for which the RP-LC retention time turned out to be 916 s.

Compound `Cn1c(=O)c2nc(S(=O)(=O)CCC(=O)Nc3cc(F)ccc3F)n(C)c2n(C)c1=O` had an RP-LC retention time of 730 s.

Compound `O=C(c1ccnnc1)N1CC(F)(F)C[C@H]1c1nnc(-c2ccccc2)o1` yielded an RP-LC retention time of 696 s.

Compound `CCCNc1cc(N2CCCC(CCC(=O)N3CCN(c4ccccc4)CC3)C2)ncn1` (centres undefined) yielded an RP-LC retention time of 719 s.

For `CCN(Cc1ccccc1)C(=O)CN1C(=O)C(O)(c2cccc(F)c2)c2ccccc21` (centres undefined), the RP-LC retention time was determined as 655 s.

In the case of `Cc1ccc2nc(NC(=O)CSc3nc4c(c(=O)n3-c3ccccc3)SCC4)sc2c1`, the RP-LC retention time stood at 922 s.

Consider `O=C(c1ccc(F)c(F)c1)N1CCN(c2cc(-c3cccs3)[nH]n2)CC1`, for which the RP-LC retention time was 758 s.

`Cc1ccccc1Oc1nccnc1N1CCC(C(=O)NCCC2=CCCCC2)CC1` showed an RP-LC retention time of 1110 s.

`O=C(c1ccccc1OCC1CCCNC1)N1CCCC1` (centres undefined): the RP-LC retention time amounted to 596 s.

In the case of `O=C(Nc1cnn(-c2ncc(N3CCCCC3)cn2)c1)c1ccc(C(F)(F)F)cc1`, the RP-LC retention time turned out to be 1010 s.
